The compound `COc1cc(-c2ccc(C)cc2)cc2oc(=O)c(C)c(C)c12` showed a melting point of 123 °C.

`CNc1ccc(C(=O)OC)c(OC)n1` came in with a melting point of 120 to 122 °C.

`N#Cc1ccc(OCCCOc2cccc(-c3cc4ccc(C#N)cc4o3)c2)cc1` displayed a melting point of 128 to 129 °C.

As to `Nc1nnc(SCC(=O)C23CC4CC(CC(C4)C2)C3)s1`, the melting point was 198 to 199 °C.

With `CC1(Cc2cc(C(C)(C)C)c(O)c(C(C)(C)C)c2)CCCCC1=O` (stereo not drawn), the melting point was determined as 75 °C.

With `CCN1CCN2C1=Nc1ccc(Cl)cc1C2c1ccccc1` (stereo not drawn), the melting point was 145 to 146 °C.

`Cc1ccc(OC(F)C(F)(F)F)c([N+](=O)[O-])c1[N+](=O)[O-]` (stereo not drawn) gave a melting point of 35 °C.

In the case of `Cc1nc(C)c(Cl)c(NCc2ccc(Oc3ccc4ncc([N+](=O)[O-])n4n3)c(Cl)n2)n1`, the melting point was in the range of 184 to 186 °C.

In turn, `COc1ccc(Nc2ccc(OCc3ccccc3)cc2)c(C(C)=O)c1` showed a melting point of 80 to 81.5 °C.

On to `COC(=O)c1ccc(Cl)cc1NC(=O)CSc1ccc(C)cc1`, for which the melting point was in the range of 91 to 93 °C.

With `CCn1c(C)c(C2(c3ccc(N(C)C)cc3N(C)C)OC(=O)c3ccccc32)c2ccccc21` (stereo not drawn), the melting point lay within 218 to 222 °C.

For the compound `CC(=O)Oc1ccccc1[C@@H]1SC(C)(C)[C@H](C(=O)O)N1C(C)=O`, the melting point lay in the range of 214 to 216 °C.

Turning to `CN(CCC(Oc1ccc(S(=O)(=O)c2ccccc2)cc1)c1ccccc1)CC(=O)O` (stereo not drawn), the melting point fell in the range of 95 to 100 °C.

`O=C(c1cccs1)c1cnn2c(-c3cccc(N4CCCC4=O)c3)ccnc12`: the melting point was over 200 °C.

In turn, `Cn1ncnc1COc1nn2c(-c3ccccc3F)nncc2c1C(C)(C)C` registered a melting point of 128 °C.

On to `CNc1ncc2cc(-c3ccccc3)c(NC)nc2n1`, for which the melting point fell in the range of 204 to 205 °C.

For `CNc1ccc(Cl)c(-c2cc(=O)c3c(O)cc(O)c(C4CCN(C)C4CO)c3o2)c1` (stereo not drawn), the melting point was 208 to 210 °C.

`C=CCOc1ccc(-c2c(OC(C)C)cccc2C(=O)O)c(OC)c1` gave a melting point of 101 to 103 °C.

Turning to `COc1cc(OC)cc(SSc2cc(OC)cc(OC)c2)c1`, the melting point lay in the range of 152 to 160 °C.

As to `C=CC(=O)Oc1ccc(-c2cccc(OC(=O)C=C)c2)cc1`, the melting point came out at 63.6 °C.

In turn, `Cc1c(-c2cccc(OCc3ccccc3)c2)n(Cc2ccc(OCCN3CCCCC3)cc2)c2ccc(OCc3ccccc3)cc12` returned a melting point of 125 to 126 °C.

Compound `CC12CC(O)C3(F)C(CCC4=CC(=O)C=CC43C)C1CC=C2SCOC(=O)c1ccccc1` (stereo not drawn) showed a melting point of 220 to 222 °C.

Consider `CCCCc1nc2c(N)nc3ccccc3c2n1CCNC(=S)Nc1ccc(-c2c3ccc(=O)cc-3oc3cc(O)ccc23)c(C(=O)O)c1`, for which the melting point is over 245 °C.

Consider `CS(=O)(=O)c1ccc(-c2cnn(CC(F)(F)F)c(=O)c2NCCC#N)cc1`, for which the melting point is 172 to 174 °C.

Compound `CCOC(=O)c1cc2c(Cl)c(F)ccc2[nH]1` gave a melting point of 180 to 182 °C.

With `CCOC(=O)c1csc(-c2ccc([N+](=O)[O-])cc2)n1`, the melting point fell in the range of 156 to 158 °C.

`COc1cccc(C(=O)Nc2ccc(N3CCCC3)cc2C(C)=O)c1OC` came in with a melting point of 137 to 140 °C.

`CC1=C(CC(=O)O)c2cc(F)ccc2C1=Cc1ccc(S(C)(=O)=O)cc1`: the melting point fell in the range of 204 to 206 °C.

In the case of `O=C(O)c1coc2ccc(OCc3ccccc3)cc2c1=O`, the melting point was 170 to 173 °C.

As for `Clc1ccccc1/C=C/C1=CCN(Cc2c[nH]c3ncccc23)CC1`, the melting point was in the range of 174 to 176 °C.

For the compound `CC(C)(C)OC(=O)CNC(=O)c1nc2cc(Cl)ccc2o1`, the melting point is 152 to 154 °C.

`CCOC(=O)c1c(O)c2ccccc2n(Cc2ccc(F)cc2)c1=O`: the melting point was in the range of 116 to 120 °C.

`Cc1c(SCc2ccco2)ccnc1CSc1nc2ccccc2[nH]1`: the melting point fell in the range of 188 to 189 °C.

For the compound `Cc1cc(F)ccc1OC1CC(C#CC(C)N(O)C(N)=O)C1` (single isomer, unassigned; (+)), the melting point lay within 139 to 140 °C.

On to `C=CCNC(=O)N(N(CCCl)S(C)(=O)=O)S(C)(=O)=O`, for which the melting point fell in the range of 105 to 106 °C.

For `CCN1CCN(Cc2cc(-c3ccc4c(Nc5ccc(Cl)cc5Cl)c(C#N)cnc4c3)cs2)CC1`, the melting point lay in the range of 182 to 184 °C.

`CSc1c(C)nc(C(C)C)nc1O` had a melting point of 156 °C.

Consider `CN(C1=CC(C)(C)Oc2ccc(OCCCC(F)(F)F)cc21)S(C)(=O)=O`, for which the melting point worked out at 118 °C.

The compound `O=C(CCCCCCS(=O)(=O)c1ccccc1)c1ncco1` showed a melting point of 55 to 56 °C.

`O=C(O)CCCSC=CS(=O)(=O)CCCC(=O)O` displayed a melting point of 120 °C.

`COC(=O)c1ccc(OS(N)(=O)=O)cc1` yielded a melting point of 116 to 118 °C.

In turn, `COc1ccc(-c2ccc3c(c2)C=C(C(=O)Nc2ccc(CN(C)C4CCOCC4)cc2)CCS3(=O)=O)cc1` had a melting point of 247 to 249 °C.

With `CN(C)C(=S)N1C=CC=NC1N` (stereo not drawn), the melting point was in the range of 134 to 136 °C.

`CCn1cc(C(F)(F)F)c(=O)[nH]c1=O` displayed a melting point of 259 to 260 °C.

Turning to `Cc1cccc(Oc2c[nH]c(=O)[nH]c2=O)c1`, the melting point was in the range of 291 to 295 °C.

With `NS(=O)(=O)c1cc2c(s1)CN(CCO)CC2`, the melting point was in the range of 184 to 186 °C.

`O=C(c1ccccc1F)c1cc(Cl)ccc1C#CCN1C(=O)c2ccccc2C1=O` returned a melting point of 158 to 161 °C.

Consider `CC(C)(C)OC(=O)NCCCCC(=O)NCCC(=O)O`, for which the melting point turned out to be 70 °C.

As for `CC(C)CCN1C(=O)C(NC(=O)Nc2cccc(N(C)C)c2)C(=O)N(CC23CC4CC(CC(C4)C2)C3)c2ccccc21` (stereo not drawn), the melting point was in the range of 226 to 227 °C.

As to `Oc1ccc(Oc2ccccc2F)cc1`, the melting point was 81.5 to 82 °C.

`CC(=O)c1ccc2c(c1)ncn2-c1cccc(-c2cnc(N)nc2)c1` displayed a melting point of 275 to 278 °C.

The compound `O=S1(=O)c2cccc3cccc(c23)N1CCCl` displayed a melting point of 96 °C.

As for `CCN(CC)CCOc1c(-c2ccc(S(C)(=O)=O)cc2)cnn(-c2cccc(Cl)c2)c1=O`, the melting point fell in the range of 110 to 113 °C.

Compound `CSCC[C@H](NC(=O)c1cc(NC(Cn2ccnc2)c2ccc(F)cc2)ccc1CCc1ccc(F)cc1)C(=O)O` (stereo partly drawn) gave a melting point of 115 to 120 °C.

`Cn1c(=O)nc(-c2ccccc2F)c2ccsc21` had a melting point of 222 to 223 °C.

`CC(C)C(=O)ON(C(=O)NN(C)C)C1c2ccccc2Oc2ccccc21` had a melting point of 131 to 132 °C.

In the case of `Cc1n[nH]c(=O)c(-c2c(F)cccc2Cl)c1-c1ccc(Cl)nc1`, the melting point was in the range of 166 to 167 °C.

For the compound `CC1(C)CCC(C)(C)c2cc(OCc3ccc(C#N)cc3)ccc21`, the melting point lay in the range of 149 to 150 °C.

`O=C(O)c1cc(F)c(C(F)(F)F)cc1[N+](=O)[O-]` registered a melting point of 142 to 145 °C.

`Cc1nn(-c2cc(OC(C)C(=O)NS(C)(=O)=O)c(Cl)cc2Cl)c(=O)n1C(F)F` (stereo not drawn) yielded a melting point of 185 to 188 °C.

Compound `COC(=O)c1cc(C(=O)NC2CCCC2)c2cc(Cc3ccc(F)cc3)cnc2c1O` came in with a melting point of 221 to 222 °C.

In turn, `O=C(O)C1(c2ccccc2)Cc2ccccc2C1` had a melting point of 193 to 195 °C.

For `CNc1nc(Cl)c(OC(F)F)c(N(C)C)n1`, the melting point is 127 to 130 °C.

Usually melting point stands for the temperature, or range, at which the solid turns liquid.

The record behind these values is a melting point compilation (Tetko et al.; mined from patent text by program, amines drawn as free bases though some values may be those of a salt).
